Measured values taken from patent US20200239530A1, “COMPOUNDS AND METHODS OF MODULATING PROTEIN DEGRADATION” (Vividion Therapeutics, Inc., priority 2017, published 2020).

Legend:
Experiment in all cases: Cysteine liganding, probe competition
Type in all cases: binding
HMOX2 Heme oxygenase 2 = biological target: T1, HMOX2 Heme oxygenase 2 (Homo sapiens, UniProt P30519); settings: for Liganded: HMOX2 Res# 265, uniprot P30519
T1 construct: Cells were resuspended in cold PBS on ice and sonicated with a probe sonicator to achieve lysis; endogenous in cells
T1 sequence (P30519 1-316): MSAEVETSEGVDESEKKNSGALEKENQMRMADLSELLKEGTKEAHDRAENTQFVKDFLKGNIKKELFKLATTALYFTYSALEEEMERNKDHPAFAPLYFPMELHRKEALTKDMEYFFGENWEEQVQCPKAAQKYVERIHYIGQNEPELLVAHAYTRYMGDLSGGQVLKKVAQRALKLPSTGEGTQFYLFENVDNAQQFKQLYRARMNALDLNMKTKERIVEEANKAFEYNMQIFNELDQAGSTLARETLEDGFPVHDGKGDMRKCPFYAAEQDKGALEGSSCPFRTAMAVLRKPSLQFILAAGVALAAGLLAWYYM
Summary of the method: (§1)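 Probe competition in native proteome: 5 mg/ml lysate, compound 1 hr 25° C, then desthiobiotin iodoacetamide (10 mM stock) 1 hr 25° C; acetone ppt, urea/DTT reduction, iodoacetamide alkylation, trypsin, streptavidin pull-down.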

LGMN Legumain = biological target: T2, LGMN Legumain (Homo sapiens, UniProt Q99538); settings: for 100 Max / 100 ave / 500 Max / 500 ave: uniprot Q99538
T2 construct: Cells were resuspended in cold PBS on ice and sonicated with a probe sonicator to achieve lysis; endogenous in cells
T2 sequence (Q99538 18-323): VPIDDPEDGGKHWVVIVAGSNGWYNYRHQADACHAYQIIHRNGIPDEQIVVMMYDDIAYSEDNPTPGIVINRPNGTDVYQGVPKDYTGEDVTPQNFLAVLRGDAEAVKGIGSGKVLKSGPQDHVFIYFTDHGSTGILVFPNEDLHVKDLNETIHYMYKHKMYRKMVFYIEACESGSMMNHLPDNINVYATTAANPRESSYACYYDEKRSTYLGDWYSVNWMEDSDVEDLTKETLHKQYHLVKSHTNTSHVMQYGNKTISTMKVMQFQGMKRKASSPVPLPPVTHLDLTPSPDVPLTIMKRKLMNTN
Summary of the method: as §1

[1] = biological target: T3, VRK3 Inactive serine/threonine-protein kinase VRK3 (Homo sapiens, UniProt Q8IV63)
T3 construct: Cells were resuspended in cold PBS on ice and sonicated with a probe sonicator to achieve lysis; endogenous in cells
T3 sequence (Q8IV63 1-474): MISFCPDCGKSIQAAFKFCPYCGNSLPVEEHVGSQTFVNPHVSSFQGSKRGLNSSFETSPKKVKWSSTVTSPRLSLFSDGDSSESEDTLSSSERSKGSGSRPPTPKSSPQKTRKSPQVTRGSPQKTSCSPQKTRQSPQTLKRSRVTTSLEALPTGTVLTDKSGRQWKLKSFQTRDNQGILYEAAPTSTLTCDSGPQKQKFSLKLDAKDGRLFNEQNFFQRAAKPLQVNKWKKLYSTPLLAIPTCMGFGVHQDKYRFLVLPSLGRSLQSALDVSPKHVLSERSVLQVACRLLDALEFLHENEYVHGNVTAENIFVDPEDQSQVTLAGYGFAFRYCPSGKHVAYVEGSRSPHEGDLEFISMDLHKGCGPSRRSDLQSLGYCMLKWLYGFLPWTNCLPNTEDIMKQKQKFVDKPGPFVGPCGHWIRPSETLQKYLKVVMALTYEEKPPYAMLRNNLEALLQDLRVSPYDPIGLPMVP
Summary of the method: as §1

[2] = biological target: T4, CKB Creatine kinase B-type (Homo sapiens, UniProt P12277)
T4 construct: 200 μL of lysate containing 5 mg/ml proteome was treated with 2 μL of 100× compound stock; endogenous in cells
Summary of the method: as §1

T4 sequence (P12277 whole entry): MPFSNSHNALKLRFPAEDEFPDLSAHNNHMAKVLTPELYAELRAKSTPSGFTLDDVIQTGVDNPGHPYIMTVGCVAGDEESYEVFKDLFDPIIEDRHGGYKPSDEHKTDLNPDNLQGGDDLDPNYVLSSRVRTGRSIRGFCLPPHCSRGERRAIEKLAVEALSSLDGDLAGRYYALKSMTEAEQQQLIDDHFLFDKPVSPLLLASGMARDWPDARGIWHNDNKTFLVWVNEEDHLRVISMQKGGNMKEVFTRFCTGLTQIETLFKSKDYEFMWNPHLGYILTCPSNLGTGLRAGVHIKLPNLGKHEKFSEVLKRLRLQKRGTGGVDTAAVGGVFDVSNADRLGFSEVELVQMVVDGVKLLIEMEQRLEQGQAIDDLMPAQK

Structure (SMILES): COc1ccc2c(c1)CCCN2C(=O)CCl [KB02]
- Liganded (HMOX2 Heme oxygenase 2): YES
- Liganded (LGMN Legumain; LGMN Res# 50, uniprot Q99538): YES
- 100 Max (LGMN Legumain): 33.6
- 100 ave (LGMN Legumain): 20.31
- 500 Max (LGMN Legumain): 78.38
- 500 ave (LGMN Legumain): 78.38
- Liganded ([1]; VRK3 Res# 191, uniprot Q8IV63): YES
- Liganded ([2]; CKB Res# 283, uniprot P12277): YES

Structure (SMILES): O=C(CCl)Nc1cc(C(F)(F)F)cc(C(F)(F)F)c1 [KBO3]
- Liganded (HMOX2 Heme oxygenase 2): YES
- 100 Max (HMOX2 Heme oxygenase 2; uniprot P30519): 93.81
- 100 ave (HMOX2 Heme oxygenase 2; uniprot P30519): 81.435
- 500 ave (HMOX2 Heme oxygenase 2; uniprot P30519): 88.6
- 500 Max (HMOX2 Heme oxygenase 2; uniprot P30519, in % (unit assumed)): 98.54
- 100 Max (LGMN Legumain): 12.45
- 100 ave (LGMN Legumain): 0.755
- 500 Max (LGMN Legumain): 60.93
- 500 ave (LGMN Legumain): 60.93
- 100 Max ([1]; uniprot Q8IV63): −8.38
- 100 ave ([1]; uniprot Q8IV63): −10.03
- 500 ave ([1]; uniprot Q8IV63): 14.41
- 500 Max ([1]; uniprot Q8IV63, in % (unit assumed)): 14.41
- 100 Max ([2]; uniprot P12277): 23.24
- 100 ave ([2]; uniprot P12277): 15.155
- 500 ave ([2]; uniprot P12277): 71.73
- 500 Max ([2]; uniprot P12277, in % (unit assumed)): 71.73
